Patent US11773086B2, “Fungal modulators” (TRUSTEES OF BOSTON UNIVERSITY, priority 2020, dated 2023)

Columns and labels:
[1] = system: CDR1 (B9J08_000164) and CDR4-1 (B9J08_000479); test: RT-qPCR of efflux gene expression; format: cell-based, Candida auris; details: azoffluxin alone, 3 hours
Source text: FIGS. 3A-3B, and 4A-4B illustrate azoffluxin increases fluconazole (FLC) bioavailability by inhibiting Cdr1-mediated efflux in C. auris, as described above. FIG. 3A depicts the relative abundance of specific sterols determined in C. auris after an 18-hour treatment with the respective compounds (⋅ indicates combo treatment concentrations) using LC-MS. Values are plotted relative to the internal standard of cholesterol and error bars indicate standard deviation between technical triplicates. Significance was determined by an unpaired student t-test of each condition to untreated, (*) indicates a p-value<0.05 and (**) indicates a p-value<0.01. FIG. 3B depicts the intracellular concentrations of FLC and azoffluxin measured after treatment for 1 hour (conditions as in FIG. 3A) Error bars indicate standard deviation between technical triplicates. Significance was determined by an unpaired student t-test, (**) indicates a p-value<0.01. FIG. 4A depicts the quantified relative expression of a panel of putative efflux pumps in C. auris Ci6684. Expression of CDR1 (B9J08_000164), MDR1 (B9J08_003981), CDR4-1 (B9J08_000479), CDR4-2 (B9J08_002451), SNQ2-1 (B9J08_001125), and SNQ2-2 (B9J08_004452) was measured by RT-qPCR. […] FIG. 4B depicts expression of CDR1 (B9J08_000164) and CDR4-1 (B9J08_000479) measured by quantitative real-time PCR (RT-qPCR). […]

[2] = Stability and activity in plasma; format: in vitro ADME
Tolerability = format: in vivo; details: 10 mg/Kg BID for 4 days
MDR1 (ABCB1) = target: T1, MDR1 (ABCB1) (Homo sapiens, UniProt P08183); test: Rhodamine 6G accumulation in MDR1-overexpressing HEK293 cells (flow cytometry); format: cell-based, mammalian
T1 construct: expressed in transfected cells; host or cells: HEK293
Procedure: P-gp overexpressing HEK293 cell lines were used to determine if azoffluxin treatment leads to a greater accumulation of fluorescent substrates (MFI) as determined by flow cytometry.
MDR1 (ABCB1) and MRP1 (ABCC1) was assessed using the fluorescent dyes rhodamine 6G (0.5 μg/mL) and Calcein AM (2.5 μg/mL), for each pump respectively, and the known inhibitor controls tariquidar (60 nM) and MK571 (30 μM) for each pump respectively. Listed data is shown by FIG. 12E (R6G) and FIG. 12F (Cal).

T1 sequence (P08183 whole entry): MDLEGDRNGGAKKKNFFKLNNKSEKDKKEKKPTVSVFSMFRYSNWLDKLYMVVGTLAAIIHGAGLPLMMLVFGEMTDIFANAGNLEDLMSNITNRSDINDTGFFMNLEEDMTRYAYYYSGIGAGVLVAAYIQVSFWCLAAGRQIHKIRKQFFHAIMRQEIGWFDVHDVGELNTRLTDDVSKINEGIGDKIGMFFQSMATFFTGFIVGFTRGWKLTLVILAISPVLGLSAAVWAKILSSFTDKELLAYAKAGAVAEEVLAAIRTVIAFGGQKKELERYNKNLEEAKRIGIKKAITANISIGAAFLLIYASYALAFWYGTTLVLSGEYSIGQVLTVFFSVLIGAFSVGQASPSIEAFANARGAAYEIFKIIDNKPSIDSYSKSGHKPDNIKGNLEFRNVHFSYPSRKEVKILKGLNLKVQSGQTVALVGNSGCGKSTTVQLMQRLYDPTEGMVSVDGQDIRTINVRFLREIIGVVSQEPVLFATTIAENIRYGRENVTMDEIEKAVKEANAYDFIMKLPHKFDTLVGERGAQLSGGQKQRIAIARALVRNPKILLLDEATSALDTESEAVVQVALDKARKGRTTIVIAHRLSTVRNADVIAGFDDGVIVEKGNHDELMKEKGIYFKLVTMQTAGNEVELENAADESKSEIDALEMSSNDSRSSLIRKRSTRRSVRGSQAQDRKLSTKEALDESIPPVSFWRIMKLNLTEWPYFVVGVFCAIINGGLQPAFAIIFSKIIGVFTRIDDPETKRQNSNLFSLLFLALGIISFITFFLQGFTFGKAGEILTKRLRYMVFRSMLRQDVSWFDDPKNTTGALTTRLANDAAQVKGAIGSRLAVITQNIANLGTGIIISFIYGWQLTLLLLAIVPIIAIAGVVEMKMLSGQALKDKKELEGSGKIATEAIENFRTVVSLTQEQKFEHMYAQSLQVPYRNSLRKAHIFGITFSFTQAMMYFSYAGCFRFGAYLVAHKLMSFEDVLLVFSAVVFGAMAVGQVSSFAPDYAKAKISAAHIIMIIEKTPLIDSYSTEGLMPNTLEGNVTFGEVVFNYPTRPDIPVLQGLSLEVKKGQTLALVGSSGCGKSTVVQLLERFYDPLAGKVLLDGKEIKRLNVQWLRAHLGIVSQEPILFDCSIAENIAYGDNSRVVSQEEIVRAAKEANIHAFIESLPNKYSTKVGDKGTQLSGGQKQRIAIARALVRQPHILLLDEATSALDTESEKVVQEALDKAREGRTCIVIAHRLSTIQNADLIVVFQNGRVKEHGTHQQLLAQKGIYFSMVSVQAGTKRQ

**Q.** With C=C(C)C[C@@H](O)COc1cc2c(cc1C1(c3cc4c(cc3OC[C@H](O)CC(=C)C)OCO4)C(=O)Nc3cc(F)ccc31)OCO2 [CMLD012336] as the compound, how does the “CDR1 and CDR4-1 transcript levels” value [1] read?
**A.** The value was “concentration-dependent increase”.

**Q.** What about the stability in plasma [2] of the same compound?
**A.** Its stability in plasma is “stable and retains activity in plasma”.

**Q.** And the tolerability (Tolerability)?
**A.** The tolerability was “well tolerated”.

**Q.** And the “dye accumulation in control cDNA cells” value (MDR1 (ABCB1))?
**A.** Its value is “no effect”.
